Structures can show the parent of a compound that is named as a salt. Where two headings read alike, the source gives them in different places.
Legend:
NLRP3 inflammasome = experiment: IL-1β secretion assay in PMA-differentiated THP-1 cells, nigericin-activated (HTRF); format: cell-based
Protocol: 10 μL supernatant was removed, and IL-1p levels were monitored using an HTRF assay (CisBio, #621L1PEC) according to manufacturers' instructions. Viability and pyroptosis was monitored with the addition of PrestoBlue cell viability reagent (Life Technologies, #A13261) directly to the cell culture plate.
(§1) IC50 values were calculated from the plot of percentage of inhibition versus the inhibitor concentration by a logistics fit according to: y=A2+(A1−A2)/(1+(x/IC50)^p) where y is the %-inhibition at the inhibitor concentration, x. A1 is the lowest inhibition value, i.e. 0%, and A2 the maximum inhibition value, i.e. 100%. The exponent, p, is the Hill coefficient. The curve fitting was conducted with an internally developed software suite.
NLRP3-dependent IL-1β secretion was stimulated in PMA-differentiated THP-1 cells by the addition of nigericin, and cytokines were measured in the […] after 3 hours. As discussed above, activation of the NLRP3 inflammasome requires both an NF-kB-dependent priming step and the addition of a NLRP3 activator.

[1] = test system: NF-kB-dependent TNF-α secretion; experiment: TNF-α secretion assay in THP-1 cells (counter screen, HTRF); format: cell-based; conditions: Pam3CSK4-stimulated, 3 hours
Protocol: Monocytic THP-1 cells were maintained according to providers' instructions in RPMI media as described above. […] Experimental compounds were prepared and added as described above. TNF-α secretion was triggered by the addition of either 1 μg/mL LPS (Sigma, #L4391) or 100 ng/mL Pam3CSK4 (Invivogen, #tlrl-pms) depending on the experiment, and cells were incubated for 3 hours. 10 μL supernatant was removed, and TNF-α levels were monitored using an HTRF assay (CisBio, #62TNFPEC) according to manufacturers' instructions. Viability was monitored as described above.
as §1, with “suite. […]” for “suite.”

[2] = Homo sapiens, 15 μM nigericin, 3 hours, read-out: IL-1β IC50

SMILES	IC50 (NLRP3 inflammasome; [2]) [nM]	IC50 ([1]; Homo sapiens) [nM]	IC50 (NLRP3 inflammasome; read-out: IL-1β IC50, 15 μM nigericin, 3 hours) [nM]	IC50 [1] [nM]
OCCNc1ccc(-c2c(O)cc(C(F)(F)F)cc2Cl)nn1 [Ex 37, 3-Chloro-2-(6-((2-hydroxyethyl)amino)pyridazin-3-yl)-5-(trifluoromethyl)phenol]	381	> 100000	–	–
Cc1cc(C(F)(F)F)cc(O)c1-c1ccc(NC[C@@](C)(O)CO)nn1 [Ex 88b, (R)-3-((6-(2-Hydroxy-6-methyl-4-(trifluoromethyl)phenyl)pyridazin-3-yl)amino)-2-methylpropane-1,2-diol]	60.5	> 100000	–	–
Cc1cc(-c2c(C)cc(C(F)(F)F)cc2O)nnc1N[C@@H]1CCC[N+](C)([O-])C1 (stereo partly drawn) [Ex 104, (3R)-3-((6-(2-Hydroxy-6-methyl-4-(trifluoromethyl)phenyl)-4-methylpyridazin-3-yl)amino)-1-methylpiperidine 1-oxide TFA-salt]	59	> 100000	–	–
Cc1cc(C(F)(F)F)cc(O)c1-c1cc(C(F)(F)F)c(NCCO)nn1 [Ex 26, 2-(6-((2-Hydroxyethyl)amino)-5-(trifluoromethyl)pyridazin-3-yl)-3-methyl-5-(trifluoromethyl)phenol]	165	> 100000	–	–
C[C@]1(O)C[C@@H](Nc2cc(C(F)(F)F)c(-c3ccc(C(F)(F)F)cc3O)nn2)C1 [Ex 66, 2-(6-(((cis)-3-Hydroxy-3-methylcyclobutyl)amino)-4-(trifluoromethyl)pyridazin-3-yl)-5-(trifluoromethyl)phenol]	187	> 33000	–	–
Cc1cc(C(F)(F)F)cc(O)c1-c1ccc(N[C@@H]2CCC(=O)NC2)nn1 [Ex 61, (R)-5-((6-(2-Hydroxy-6-methyl-4-(trifluoromethyl)phenyl)pyridazin-3-yl)amino)piperidin-2-one]	65.8	> 100000	–	–
Cc1cc(C(F)(F)F)cc(O)c1-c1ccc(NC[C@H]2CC(F)(F)CN2)nn1 [Ex 23, (R)-2-(6-(((4,4-Difluoropyrrolidin-2-yl)methyl)amino)pyridazin-3-yl)-3-methyl-5-(trifluoromethyl)phenol]	93.4	> 100000	–	–
Cc1cc(-c2c(C)cc(C(F)(F)F)cc2O)nnc1NCC(C)(C)O [Ex 72, 2-(6-((2-Hydroxy-2-methylpropyl)amino)-5-methylpyridazin-3-yl)-3-methyl-5-(trifluoromethyl)phenol]	44.9	> 100000	–	–
Cc1cc(-c2c(C)cc(C(F)(F)F)cc2O)nnc1NC1CCC(=O)N(C)C1 (stereo not drawn) [Ex 99, 5-((6-(2-Hydroxy-6-methyl-4-(trifluoromethyl)phenyl)-4-methylpyridazin-3-yl)amino)-1-methylpiperidin-2-one]	75	> 100000	–	–
Cc1cc(C(F)(F)F)cc(O)c1-c1ccc(NC[C@H]2CCCCN2CCO)nn1 [Ex 84a, (R)-2-(6-(((1-(2-Hydroxyethyl)piperidin-2-yl)methyl)amino)pyridazin-3-yl)-3-methyl-5-(trifluoromethyl)phenol]	42.5	> 100000	–	–
Cc1cc(C(F)(F)F)cc(O)c1-c1ccc(NC[C@@H]2CCCCN2)nn1 [Ex 21, (S)-3-Methyl-2-(6-((piperidin-2-ylmethyl)amino)pyridazin-3-yl)-5-(trifluoromethyl)phenol]	48.4	> 100000	–	–
Cc1cc(C(F)(F)F)cc(O)c1-c1ccc(N[C@@H]2CCC[C@@H](O)C2)nn1 [Ex 58, 2-(6-(((1R,3R)-3-Hydroxycyclohexyl)amino)pyridazin-3-yl)-3-methyl-5-(trifluoromethyl)phenol]	58.4	> 100000	–	–
Cc1cc(C(F)(F)F)cc(O)c1-c1ccc(N[C@H]2CC[C@H](O)[C@@H]2O)nn1 [Ex 89a, (1S,2R,3S)-3-((6-(2-Hydroxy-6-methyl-4-(trifluoromethyl)phenyl)pyridazin-3-yl)amino) cyclopentane-1,2-diol]	59.7	> 100000	–	–
Cc1cc(C(F)(F)F)cc(O)c1-c1ccc(NC[C@](C)(O)C(F)(F)F)nn1 [Ex 78, (S)-3-Methyl-2-(6-((3,3,3-trifluoro-2-hydroxy-2-methylpropyl)amino)pyridazin-3-yl)-5-(trifluoromethyl)phenol HCl-salt]	198	> 100000	–	–
Cc1cc(C(F)(F)F)cc(O)c1-c1ccc(N[C@@H]2CCC[C@H](O)C2)nn1 [Ex 3, 2-(6-(((1R,3S)-3-Hydroxycyclohexyl)amino)pyridazin-3-yl)-3-methyl-5-(trifluoromethyl)phenol]	25.5	> 100000	–	–
Cc1cc(C(F)(F)F)cc(O)c1-c1ccc(N[C@H]2CCCN3CCC[C@@H]23)nn1 [Ex 83b, 3-Methyl-2-(6-(((8S,8aS)-octahydroindolizin-8-yl)amino)pyridazin-3-yl)-5-(trifluoromethyl) phenol]	69.4	> 100000	–	–
Cc1cc(C(F)(F)F)cc(O)c1-c1ccc(NC[C@@H]2CCCCN2CCO)nn1 [Ex 84b, (S)-2-(6-(((1-(2-Hydroxyethyl)piperidin-2-yl)methyl)amino)pyridazin-3-yl)-3-methyl-5-(trifluoromethyl)phenol]	53.3	> 33000	–	–
Cc1cc(C(F)(F)F)cc(O)c1-c1ccc(NCC(C)(C)N(C)C)nn1 [Ex 16, 2-(6-((2-(Dimethylamino)-2-methylpropyl)amino)pyridazin-3-yl)-3-methyl-5-(trifluoromethyl)phenol]	36.3	> 100000	–	–
Cc1ncccc1CNc1ccc(-c2c(O)cc(Cl)cc2C(F)(F)F)nn1 [Ex 35, 5-Chloro-2-(6-(((2-methylpyridin-3-yl)methyl)amino)pyridazin-3-yl)-3-(trifluoromethyl)phenol]	243	> 100000	–	–
Cc1cc(-c2c(C)cc(C(F)(F)F)cc2O)nnc1N[C@H]1C[C@@](C)(O)C1 [Ex 54, 2-(6-(((cis)-3-Hydroxy-3-methylcyclobutyl)amino)-5-methylpyridazin-3-yl)-3-methyl-5-(trifluoromethyl)phenol]	11.8	35000	–	–
Cc1cc(C(F)(F)F)cc(O)c1-c1ccc(NC[C@@H]2CC(F)(F)CN2)nn1 [Ex 22, (S)-2-(6-(((4,4-Difluoropyrrolidin-2-yl)methyl)amino)pyridazin-3-yl)-3-methyl-5-(trifluoromethyl)phenol]	80.7	> 100000	–	–
Cc1cc(C(F)(F)F)cc(O)c1-c1ccc(NC[C@H]2CCCN2)nn1 [Ex 14, (R)-3-Methyl-2-(6-((pyrrolidin-2-ylmethyl)amino)pyridazin-3-yl)-5-(trifluoromethyl)phenol]	85.7	> 100000	–	–
Cc1cc(C(F)(F)F)cc(O)c1-c1ccc(N[C@@H]2CC[C@@H]3CC[C@H]2N3C)nn1 [Ex 85b, 3-Methyl-2-(6-(((1R,2R,5R)-8-methyl-8-azabicyclo[3.2.1]octan-2-yl)amino)pyridazin-3-yl)-5-(trifluoromethyl)phenol]	–	–	1.3	> 100000
Cc1cc(C(F)(F)F)cc(O)c1-c1ccc(NCC2(O)CCCC2)nn1 [Ex 98, 2-(6-(((1-Hydroxycyclopentyl)methyl)amino)pyridazin-3-yl)-3-methyl-5-(trifluoromethyl)phenol]	115	> 100000	–	–
Cc1cc(C(F)(F)F)cc(O)c1-c1ccc(N[C@H]2CCC[C@H](O)C2)nn1 [Ex 57, 2-(6-(((1S,3S)-3-Hydroxycyclohexyl)amino)pyridazin-3-yl)-3-methyl-5-(trifluoromethyl)phenol]	224	84000	–	–
Cc1cc(C(F)(F)F)cc(O)c1-c1ccc(NCC(C)(C)N)nn1 [Ex 29, 2-(6-((2-Amino-2-methylpropyl)amino)pyridazin-3-yl)-3-methyl-5-(trifluoromethyl)phenol]	169	> 100000	–	–
Oc1cc(C(F)(F)F)cc(Cl)c1-c1ccc(N[C@H]2C[C@@H](O)C2)nn1 [Ex 31, 3-Chloro-2-(6-((cis-3-hydroxycyclobutyl)amino)pyridazin-3-yl)-5-(trifluoromethyl)phenol]	167	> 100000	–	–
Cc1cc(C(F)(F)F)cc(O)c1-c1ccc(NCC(C)(C)O)nn1 [Ex 15, 2-(6-((2-Hydroxy-2-methylpropyl)amino)pyridazin-3-yl)-3-methyl-5-(trifluoromethyl)phenol]	85.9	> 100000	–	–
Cc1cc(C(F)(F)F)cc(O)c1-c1ccc(Nc2cncnc2)nn1 [Ex 43, 3-Methyl-2-(6-(pyrimidin-5-ylamino)pyridazin-3-yl)-5-(trifluoromethyl)phenol]	281	25000	–	–
Cc1cc(C(F)(F)F)cc(O)c1-c1ccc(N[C@H]2C[C@@](C)(O)C2)nn1 [Ex 2, 2-(6-(((cis)-3-Hydroxy-3-methylcyclobutyl)amino)pyridazin-3-yl)-3-methyl-5-(trifluoromethyl)phenol]	10.2	> 100000	–	–

— patent US11208399B2, “NLRP3 inflammasome inhibitors” (Novartis AG, priority 2019, dated 2021)
